Experimental findings from US8003660B2, “Modulators of muscarinic receptors” (Vertex Pharmaceuticals Incorporated, priority 2006, dated 2011) are described below.

What all share (format): cell-based
One test deals with T1, M3 muscarinic receptor (Homo sapiens, UniProt P20309).
T1 construct: expressed in transfected cells; host or cells: CHO (M3-CHO)
Nature of the test: Functional mobilization of intracellular calcium (FLIPR) in CHO cells expressing M3. Particulars: for M3 Activity: CHO cells expressing M3, FLIPR calcium assay; for Emax: CHO, 100% efficacy = maximum response obtained with the Carbachol control. In a few lines: (§1)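 Recombinant CHO cells loaded with Fluo-3 AM or Calcium 3 dye in pH 7.4 buffer containing 1 mM probenecid, with 0.5% final DMSO. For agonism, compound is added directly. For inhibition, it is preincubated 15 min, or co-applied, before carbachol at EC80. FLIPR fluorescence (ex 488, em 540 nm) is recorded for 60 s.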

The target in the next test is T2, M1 muscarinic receptor (Homo sapiens, UniProt P11229).
T2 construct: expressed in transfected cells; host or cells: CHO (M1-CHO)
T2 sequence (P11229 1-460): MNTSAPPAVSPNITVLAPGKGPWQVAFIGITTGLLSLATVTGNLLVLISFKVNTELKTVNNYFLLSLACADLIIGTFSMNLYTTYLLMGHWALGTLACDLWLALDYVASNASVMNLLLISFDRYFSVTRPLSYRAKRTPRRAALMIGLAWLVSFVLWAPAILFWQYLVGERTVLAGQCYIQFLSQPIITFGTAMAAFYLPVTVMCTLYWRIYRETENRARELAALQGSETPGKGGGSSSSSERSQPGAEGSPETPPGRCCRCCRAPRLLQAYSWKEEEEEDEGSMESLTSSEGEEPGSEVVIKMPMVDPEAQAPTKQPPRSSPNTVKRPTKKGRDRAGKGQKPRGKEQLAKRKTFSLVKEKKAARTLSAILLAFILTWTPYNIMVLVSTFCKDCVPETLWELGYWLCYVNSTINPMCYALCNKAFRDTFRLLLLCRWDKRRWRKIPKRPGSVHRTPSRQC
In words: Functional mobilization of intracellular calcium (FLIPR) in CHO cells expressing M1. Particulars: for M1 Activity: CHO cells expressing M1, FLIPR calcium assay; for Emax: CHO, 100% efficacy = maximum response obtained with the Carbachol control. The procedure, abridged:
as §1
Background: A change in cytosolic calcium serves as a functional read-out for many receptors and channels.

The target of another test is T3, M4 muscarinic receptor (Homo sapiens, UniProt P08173).
T3 construct: expressed in transfected cells; host or cells: CHO (M4-CHO)
T3 sequence (P08173 1-479): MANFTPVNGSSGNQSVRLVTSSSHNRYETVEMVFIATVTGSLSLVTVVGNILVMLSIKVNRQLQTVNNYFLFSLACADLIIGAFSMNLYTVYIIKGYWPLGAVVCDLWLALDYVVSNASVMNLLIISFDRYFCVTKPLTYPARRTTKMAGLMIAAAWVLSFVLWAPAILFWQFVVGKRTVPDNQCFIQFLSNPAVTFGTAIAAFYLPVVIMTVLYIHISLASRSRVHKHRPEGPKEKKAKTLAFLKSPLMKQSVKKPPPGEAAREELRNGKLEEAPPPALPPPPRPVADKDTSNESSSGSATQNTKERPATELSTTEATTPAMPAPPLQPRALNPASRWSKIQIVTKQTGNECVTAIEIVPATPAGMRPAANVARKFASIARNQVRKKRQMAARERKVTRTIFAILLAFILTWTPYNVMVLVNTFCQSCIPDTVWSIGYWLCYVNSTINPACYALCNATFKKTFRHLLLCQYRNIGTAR
In words: Functional mobilization of intracellular calcium (FLIPR) in CHO cells expressing M4. The following applies: for M4 Activity: CHO cells expressing M4, FLIPR calcium assay; for Emax: CHO, 100% efficacy = maximum response obtained with the Carbachol control. In a few lines:
as §1

For the next test, the target named is T4, M2 muscarinic receptor (Homo sapiens, UniProt P08172).
T4 construct: expressed in transfected cells; host or cells: CHO (M2-CHO)
T4 sequence (P08172 1-466): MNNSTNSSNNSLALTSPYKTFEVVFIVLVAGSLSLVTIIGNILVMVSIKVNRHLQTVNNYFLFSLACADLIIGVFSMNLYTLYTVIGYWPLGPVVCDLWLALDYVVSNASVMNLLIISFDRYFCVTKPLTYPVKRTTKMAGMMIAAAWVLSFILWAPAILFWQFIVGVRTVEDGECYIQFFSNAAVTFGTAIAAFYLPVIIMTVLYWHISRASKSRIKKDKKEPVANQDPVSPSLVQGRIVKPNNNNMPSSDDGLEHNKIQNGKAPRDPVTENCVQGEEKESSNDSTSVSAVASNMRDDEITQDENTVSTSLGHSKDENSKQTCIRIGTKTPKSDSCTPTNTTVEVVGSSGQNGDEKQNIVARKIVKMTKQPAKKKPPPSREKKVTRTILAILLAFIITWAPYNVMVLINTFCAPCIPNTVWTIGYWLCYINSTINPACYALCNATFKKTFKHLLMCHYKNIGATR
Nature of the test: Functional mobilization of intracellular calcium (FLIPR) in CHO cells expressing M2. The following applies: for M2 Activity: CHO cells expressing M2, FLIPR calcium assay; for Emax: CHO, 100% efficacy = maximum response obtained with the Carbachol control. In a few lines:
as §1

T1 sequence (P20309 whole entry): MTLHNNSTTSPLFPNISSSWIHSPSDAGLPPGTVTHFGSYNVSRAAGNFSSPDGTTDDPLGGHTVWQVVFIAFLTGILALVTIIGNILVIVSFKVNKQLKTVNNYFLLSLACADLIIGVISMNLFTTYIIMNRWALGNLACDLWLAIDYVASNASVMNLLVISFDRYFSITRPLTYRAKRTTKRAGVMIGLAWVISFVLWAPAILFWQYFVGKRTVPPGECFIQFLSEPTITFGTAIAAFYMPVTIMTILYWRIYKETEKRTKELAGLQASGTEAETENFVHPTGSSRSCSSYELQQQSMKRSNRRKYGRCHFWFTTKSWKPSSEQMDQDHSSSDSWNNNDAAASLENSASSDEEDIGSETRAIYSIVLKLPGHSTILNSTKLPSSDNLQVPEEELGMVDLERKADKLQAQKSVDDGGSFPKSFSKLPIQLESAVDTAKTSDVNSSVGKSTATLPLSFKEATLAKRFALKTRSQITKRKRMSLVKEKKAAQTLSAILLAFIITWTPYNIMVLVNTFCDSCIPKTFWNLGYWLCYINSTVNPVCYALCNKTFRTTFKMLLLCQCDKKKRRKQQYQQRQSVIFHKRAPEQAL

The Emax is the greatest response seen or fitted, relative to the assay's reference. With `CC(=O)NCC(=O)N[C@@H]1CCC2(CCN(CCC(C)(C)C)CC2)c2cc(F)ccc21` [compound 200], at M3 muscarinic receptor, the “M3 Activity” value is recorded as “+ (activity was measured to be greater than 5.0 μM)” and the Emax was less than 25%. Also, at M1 muscarinic receptor, the “M1 Activity” value is recorded as “+++ (activity was measured to be less than 2.0 μM)” and the maximal effect (Emax) was in the range of 25 to 100%. Moreover, at M4 muscarinic receptor, the “M4 Activity” value is recorded as “+++ (activity was measured to be less than 2.0 μM)” and the Emax was 25 to 100%. On M2 muscarinic receptor, the “M2 Activity” value is “+++ (activity was measured to be less than 2.0 μM)” and the Emax lay in the range of 25 to 100%.

Turning to `CC(C)(C)CCN1CCC2(CC[C@H](NC(=O)C3CCOCC3)c3ccc(F)cc32)CC1` [compound 202], on M3 muscarinic receptor, the “M3 Activity” value is given as “+ (activity was measured to be greater than 5.0 μM)” and the Emax is less than 25%. Further, at M1 muscarinic receptor, the “M1 Activity” value is “+++ (activity was measured to be less than 2.0 μM)” and the Emax is 25 to 100%. Moreover, on M4 muscarinic receptor, the “M4 Activity” value is “+++ (activity was measured to be less than 2.0 μM)” and the Emax lay in the range of 25 to 100%. For the same compound, on M2 muscarinic receptor, the “M2 Activity” value is reported as “+ (activity was measured to be greater than 5.0 μM)” and the Emax was less than 25%.

On to `CC(C)(C)CCN1CCC2(CC[C@H](NC(=O)[C@H]3CCC(=O)N3)c3ccc(F)cc32)CC1` [compound 203], for which, on M3 muscarinic receptor, the “M3 Activity” value is given as “+ (activity was measured to be greater than 5.0 μM)” and the Emax was less than 25%. For the same compound, at M1 muscarinic receptor, the “M1 Activity” value is listed as “+++ (activity was measured to be less than 2.0 μM)” and the Emax was 25 to 100%. At M4 muscarinic receptor, the “M4 Activity” value is reported as “+++ (activity was measured to be less than 2.0 μM)” and the Emax lay within 25 to 100%. Also, at M2 muscarinic receptor, the “M2 Activity” value is “+++ (activity was measured to be less than 2.0 μM)” and the maximal response (Emax) was 25 to 100%.

Consider `CC(=O)N[C@H]1CCC2(CCN(C(C)CC(C)(C)C)CC2)c2ccccc21` (stereo partly drawn) [compound 204], for which, at M3 muscarinic receptor, the “M3 Activity” value is “+ (activity was measured to be greater than 5.0 μM)” and the maximal response (Emax) is less than 25%. At M1 muscarinic receptor, the “M1 Activity” value is on record as “+++ (activity was measured to be less than 2.0 μM)” and the Emax lay in the range of 25 to 100%. Further, on M4 muscarinic receptor, the “M4 Activity” value is on record as “+++ (activity was measured to be less than 2.0 μM)” and the Emax is 25 to 100%. Further, at M2 muscarinic receptor, the “M2 Activity” value was “+ (activity was measured to be greater than 5.0 μM)” and the Emax was less than 25%.

Regarding `CC(=O)CCC(=O)N[C@@H]1CCC2(CCN(CCC(C)(C)C)CC2)c2ccccc21` [compound 205], on M3 muscarinic receptor, the “M3 Activity” value is listed as “+ (activity was measured to be greater than 5.0 μM)” and the Emax was less than 25%. At M1 muscarinic receptor, the “M1 Activity” value was “+++ (activity was measured to be less than 2.0 μM)” and the maximal effect (Emax) fell in the range of 25 to 100%. For the same compound, on M4 muscarinic receptor, the “M4 Activity” value is on record as “+++ (activity was measured to be less than 2.0 μM)” and the maximal response (Emax) was in the range of 25 to 100%. In addition, on M2 muscarinic receptor, the “M2 Activity” value is on record as “+ (activity was measured to be greater than 5.0 μM)” and the maximal response (Emax) was less than 25%.

Regarding `CC(C)CCN1CCC2(CC[C@H](N(C)C(=O)N(C)C)c3ccccc32)CC1` [compound 206], on M3 muscarinic receptor, the “M3 Activity” value is “+ (activity was measured to be greater than 5.0 μM)” and the Emax was less than 25%. In addition, on M1 muscarinic receptor, the “M1 Activity” value is “+ (activity was measured to be greater than 5.0 μM)” and the maximal effect (Emax) was less than 25%. At M4 muscarinic receptor, the “M4 Activity” value was “+++ (activity was measured to be less than 2.0 μM)” and the Emax was 25 to 100%. For the same compound, at M2 muscarinic receptor, the “M2 Activity” value was “+ (activity was measured to be greater than 5.0 μM)” and the Emax was less than 25%.

For `CCn1ccc(C(=O)N[C@H]2CCC3(CCN(CCC(C)(C)C)CC3)c3ccccc32)n1` [compound 207], on M3 muscarinic receptor, the “M3 Activity” value was “+ (activity was measured to be greater than 5.0 μM)” and the maximal effect (Emax) was less than 25%. In addition, at M1 muscarinic receptor, the “M1 Activity” value is on record as “++ (activity was measured to be from 2.0 μM to 5.0 μM)” and the maximal effect (Emax) was 25 to 100%. Also, on M4 muscarinic receptor, the “M4 Activity” value was “+++ (activity was measured to be less than 2.0 μM)” and the maximum response (Emax) was 25 to 100%. On M2 muscarinic receptor, the “M2 Activity” value is recorded as “+ (activity was measured to be greater than 5.0 μM)” and the maximal effect (Emax) was less than 25%.

Take `CC(C)COC(=O)N(C)[C@H]1CCC2(CCN(CCC(C)(C)C)CC2)c2ccccc21` [compound 208]: at M3 muscarinic receptor, the “M3 Activity” value is reported as “+ (activity was measured to be greater than 5.0 μM)” and the Emax was less than 25%. Besides, at M1 muscarinic receptor, the “M1 Activity” value is listed as “+++ (activity was measured to be less than 2.0 μM)” and the Emax was 25 to 100%. On M4 muscarinic receptor, the “M4 Activity” value is listed as “+++ (activity was measured to be less than 2.0 μM)” and the Emax fell in the range of 25 to 100%. On M2 muscarinic receptor, the “M2 Activity” value is “+++ (activity was measured to be less than 2.0 μM)” and the Emax is less than 25%.

`CC(C)(C)CCN1CCC2(CC[C@H](NC(=O)C3CCOCC3)c3ccccc32)CC1` [compound 209]: at M3 muscarinic receptor, the “M3 Activity” value was “+ (activity was measured to be greater than 5.0 μM)” and the maximal response (Emax) is less than 25%. On M1 muscarinic receptor, the “M1 Activity” value was “+++ (activity was measured to be less than 2.0 μM)” and the Emax fell in the range of 25 to 100%. In addition, at M4 muscarinic receptor, the “M4 Activity” value is reported as “+++ (activity was measured to be less than 2.0 μM)” and the maximal effect (Emax) is 25 to 100%. In addition, on M2 muscarinic receptor, the “M2 Activity” value is “+ (activity was measured to be greater than 5.0 μM)” and the Emax is less than 25%.

Consider `CCN(C(=O)CCC(C)=O)[C@@H]1CCC2(CCN(CCC(C)(C)C)CC2)c2ccccc21` [compound 210], for which, at M3 muscarinic receptor, the “M3 Activity” value was “+ (activity was measured to be greater than 5.0 μM)” and the maximal effect (Emax) is less than 25%. Further, at M1 muscarinic receptor, the “M1 Activity” value is given as “+++ (activity was measured to be less than 2.0 μM)” and the Emax is less than 25%. Besides, on M4 muscarinic receptor, the “M4 Activity” value was “+++ (activity was measured to be less than 2.0 μM)” and the Emax was in the range of 25 to 100%. In addition, at M2 muscarinic receptor, the “M2 Activity” value was “+ (activity was measured to be greater than 5.0 μM)” and the maximum response (Emax) is less than 25%.

Regarding `CCN(C(C)=O)[C@H]1CCC2(CCN(CCC(C)(C)C)CC2)c2ccccc21` [compound 211], on M3 muscarinic receptor, the “M3 Activity” value was “+ (activity was measured to be greater than 5.0 μM)” and the maximal response (Emax) is less than 25%. Further, on M1 muscarinic receptor, the “M1 Activity” value is given as “+++ (activity was measured to be less than 2.0 μM)” and the Emax lay in the range of 25 to 100%. Further, at M4 muscarinic receptor, the “M4 Activity” value was “+++ (activity was measured to be less than 2.0 μM)” and the Emax was in the range of 25 to 100%. Also, at M2 muscarinic receptor, the “M2 Activity” value is “+ (activity was measured to be greater than 5.0 μM)” and the maximal effect (Emax) is less than 25%.

Consider `COCCC(=O)N[C@@H]1CCC2(CCN(CCC(C)(C)C)CC2)c2cc(F)ccc21` [compound 212], for which, on M3 muscarinic receptor, the “M3 Activity” value is “+ (activity was measured to be greater than 5.0 μM)” and the Emax was less than 25%. Besides, at M1 muscarinic receptor, the “M1 Activity” value is “+++ (activity was measured to be less than 2.0 μM)” and the Emax is 25 to 100%. For the same compound, on M4 muscarinic receptor, the “M4 Activity” value was “+++ (activity was measured to be less than 2.0 μM)” and the Emax lay in the range of 25 to 100%. At M2 muscarinic receptor, the “M2 Activity” value is listed as “+ (activity was measured to be greater than 5.0 μM)” and the Emax is less than 25%.
